# Data from patent publication US12122833B2, “Combination therapies of HDAC inhibitors and PD-1 inhibitors” (HUYABIO International, LLC, priority 2016, dated 2024).
# Assays:
# [1] = target: T1, HDAC 11 (Homo sapiens, UniProt Q96DB2); conditions: cited from earlier work
# T1 sequence (Q96DB2 1-347): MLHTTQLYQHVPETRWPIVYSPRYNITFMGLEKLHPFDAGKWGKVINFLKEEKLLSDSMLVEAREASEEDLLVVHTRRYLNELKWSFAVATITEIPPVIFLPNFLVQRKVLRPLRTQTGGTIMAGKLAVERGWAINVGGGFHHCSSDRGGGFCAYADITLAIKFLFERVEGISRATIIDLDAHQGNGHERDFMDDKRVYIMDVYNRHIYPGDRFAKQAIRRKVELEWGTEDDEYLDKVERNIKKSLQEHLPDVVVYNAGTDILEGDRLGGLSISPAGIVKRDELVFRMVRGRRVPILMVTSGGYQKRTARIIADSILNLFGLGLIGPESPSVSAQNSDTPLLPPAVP
# [2] = target: HDAC 3 (Homo sapiens, UniProt O15379); conditions: reported by Ning et al.; cited from earlier work
# HDAC 3, sequence (O15379 whole entry): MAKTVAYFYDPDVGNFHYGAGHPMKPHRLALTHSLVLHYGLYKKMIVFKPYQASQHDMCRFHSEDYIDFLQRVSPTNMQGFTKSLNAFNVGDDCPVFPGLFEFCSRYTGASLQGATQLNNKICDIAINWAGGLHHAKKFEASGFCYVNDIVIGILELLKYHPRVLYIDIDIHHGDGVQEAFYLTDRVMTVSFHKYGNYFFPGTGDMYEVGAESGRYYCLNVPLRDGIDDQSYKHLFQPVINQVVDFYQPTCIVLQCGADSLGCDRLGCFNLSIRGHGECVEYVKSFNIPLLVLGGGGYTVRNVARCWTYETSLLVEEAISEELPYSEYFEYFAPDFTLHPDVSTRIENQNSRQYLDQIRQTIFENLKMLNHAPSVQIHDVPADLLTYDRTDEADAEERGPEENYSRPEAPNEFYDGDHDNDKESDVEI
# HDAC 3, sequence (Q9Y618 395-489 partner limits assumed): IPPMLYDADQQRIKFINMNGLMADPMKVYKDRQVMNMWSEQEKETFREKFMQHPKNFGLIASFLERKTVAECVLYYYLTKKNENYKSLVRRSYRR
# [3] = target: T2, HDAC 8 (Homo sapiens, UniProt Q9BY41); conditions: cited from earlier work
# T2 sequence (Q9BY41 1-377): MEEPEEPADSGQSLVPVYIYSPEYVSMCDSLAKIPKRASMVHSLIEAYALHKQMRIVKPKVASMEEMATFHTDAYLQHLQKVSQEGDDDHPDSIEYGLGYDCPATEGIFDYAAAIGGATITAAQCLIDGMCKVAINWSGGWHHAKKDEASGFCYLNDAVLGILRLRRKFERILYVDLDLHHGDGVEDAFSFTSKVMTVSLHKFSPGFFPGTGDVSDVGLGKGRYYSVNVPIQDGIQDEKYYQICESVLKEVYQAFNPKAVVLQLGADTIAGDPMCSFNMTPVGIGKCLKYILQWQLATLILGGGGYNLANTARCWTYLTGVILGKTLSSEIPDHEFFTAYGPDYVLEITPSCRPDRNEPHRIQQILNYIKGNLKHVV
# [4] = system: MC38 murine colon carcinoma; assay: Example 3: second-line therapy after PD-L1 inhibitor antibody failure, MC38 syngeneic model in C57BL/6 mice; assay type: in vivo, mouse
# Description: In this model, a proportion of the animals treated 1st line with the PD-L1 checkpoint inhibitor antibody experience complete tumor regression. However, a similar proportion of animals treated 1st line with the PD-L1 inhibitor antibody experience rapid tumor progression. The balance of the animals treated in this way experience slow tumor progression or stable disease, which is a result which approximates the situation in a number of human cancer patients receiving PD-L1 inhibitor antibody therapy, i.e., they experience a transient partial response, including stable disease, but then develop resistance and rapidly progress, failing PD-1 inhibitor antibody therapy. In this example, the efficacy of HBI-8000 as a second-line therapy, alone and in combination with PD-1 inhibitor antibody RMPI-14, was evaluated for the ability to cause tumor growth delay (TGD) in animals which tumors which are progressing following PD-L1 inhibitor antibody first line therapy in the MC38 murine colon carcinoma syngeneic model in immunocompetent C57BL/6 mice.
# Female C57BL/6 mice bearing subcutaneous MC38 tumors (mean tumor volume: 114 mm^3 when treatment began) were treated with a first line of therapy of PD-L1 inhibitor antibody treatment, administered intraperitoneally (i.p.) at 5 mg/kg, twice weekly for two weeks (biwk×2). […] Dosing began on D1, which represents the day of recruitment and varied among mice (this was normalized for each group). The second-line therapies were as follows. Vehicle was administered orally (p.o.). HBI-8000 was administered p.o. at 50 mg/kg. PD-1 inhibitor antibody and anti-PDL-1 were administered intraperitoneally (i.p) at 5 mg/kg. Group 1 mice served as controls and received 0.2% carboxymethyl cellulose: 0.1% Tween 80 in deionized water (vehicle) once daily for twenty-one days (qd×21). Group 2 received HBI-8000 qd×21. Group 3 received a second course of PD-L1 inhibitor antibody biwk×2. Group 4 received HBI-8000 qd×21 and PD-L1 inhibitor antibody biwk×2. Group 5 received anti-PD-1 biwk×2. Group 6 received HBI-8000 qd×21 and anti-PD-1 biwk×2. The study endpoint was tumor volume of 1500 mm^3 or 45 days, whichever came first. Tumor measurements were taken twice weekly until D44 with individual animals exiting the study upon reaching the tumor volume endpoint.
# Tumor Implantation and Measurement: Details of tumor implantation and measurement of tumor growth used in this example can be found in Example 1. In this example, each mouse was inoculated subcutaneously in the right flank with 5×10^5 cells (0.1 mL of cell suspension).
# Test Articles: HUYA Bioscience International provided HBI-8000 (Lot No. 1384:0033). PD-1 inhibitor antibody RMPI-14 (Lot No. 5611-10/0615) and PDL-1 antibody 10F.9G2 (anti-PDL-1, Lot No. 5786-7-8/0815) were purchased from Bio X cell (West Lebanon, N.H.). All agents were prepared according to protocol instructions.
# Dosing Solutions: HBI-8000 was prepared by diluting in 0.2% CMC: 0.1% Tween 80 to yield a 5 mg/mL dosing solution. Dosing solutions were prepared fresh weekly and stored at 4° C. PD-1 inhibitor antibody dosing solution was prepared by diluting an aliquot of the stock (8.62 mg/mL) to 0.5 mg/mL in sterile PBS. The dosing solution was prepared twice weekly and stored at 4° C. Anti-PDL-1 antibody dosing solution was prepared by diluting an aliquot of the stock (5.37 mg/mL) to 0.5 mg/mL in sterile PBS. The anti-PDL-1 antibody dosing solution was prepared twice weekly and stored at 4° C.
# Treatment: For the initial PD-L1 inhibitor antibody failure part of this study, 150 C57BL/6 mice were dosed i.p. with first line PD-L1 inhibitor antibody at 5 mg/kg, biwk×2. Animals that met the criteria for reenrollment comprised the efficacy study; this included animals with two consecutive increases in tumor volume and tumor volumes below 500 mm^3. […]
# [5] = HBI-8000 50 mg/kg p.o. qd×21, antibodies 5 mg/kg i.p., vs vehicle
structure (smiles),measurement,setting,value
"Nc1cc(F)ccc1NC(=O)c1ccc(CNC(=O)/C=C/c2cccnc2)cc1 [HBI-8000, N-(2-amino-4-fluorophenyl)-4-[[[(2E)-1-oxo-3-(3-pyridinyl)-2-propen-1-yl]amino]methyl]benz amide]",activity at HDAC 11,[1],has activity
same,activity at HDAC 11 compared with Entinostat,[1]; reported by Ning et al.,more active than Entinostat
same,activity at HDAC 3 compared with Entinostat,[2],more active than Entinostat
same,inhibition of HDAC 3,[2],low nanomolar concentrations
same,activity at HDAC 8,[3],has activity
same,activity at HDAC 8 compared with Entinostat,[3]; reported by Ning et al.,more active than Entinostat
same,Median TTE,"[4]; HBI-8000 50 mg/kg p.o. qd×21, antibodies 5 mg/kg i.p., endpoint 1500 mm^3 or 45 days, n=10",11.4 days
same,% TGD,[4]; [5],31.8%
same,Mean T-C,[4]; [5],3.0 days
same,"CR (complete response), number of animals",[4]; n=10 per group,1
same,"NR (no response), number of animals",[4]; n=10 per group,8
same,"PR (partial response), number of animals",[4]; n=10 per group,1
